Measurements: patent publication US8309718B2, “4-pyrazolyl-N-arylpyrimidin-2-amines and 4-pyrazolyl-N-heteroarylpyrimidin-2-amines as janus kinase inhibitors” (Incyte Corporation, priority 2007, dated 2012)

What follows are compounds tested against T1, human JAK2 (Homo sapiens, UniProt O60674) (assay: In vitro JAK kinase assay (HTRF, phosphorylation of biotinylated peptide)). Details: catalytic domain a.a. 828-1132, 30 μM ATP, 500 nM peptide, room temperature 1 hr; read-out: JAK-2 IC50.
T1 construct: JAK2 (a.a. 828-1132); His tag (N); made in house; host or cells: insect cells (baculovirus)
Format: biochemical
Procedure, shortened: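 His-tagged human JAK2 catalytic domain (a.a. 828-1132), baculovirus/insect-cell expressed; phosphorylation of 500 nM biotinylated peptide at 30 μM ATP in 50 mM Tris pH 7.8, 100 mM NaCl, 5 mM DTT, 0.01% BSA. 1 h at room temperature, EDTA stop, HTRF read (Eu-Py20/SA-APC); IC50.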

T1 sequence (O60674 828-1132): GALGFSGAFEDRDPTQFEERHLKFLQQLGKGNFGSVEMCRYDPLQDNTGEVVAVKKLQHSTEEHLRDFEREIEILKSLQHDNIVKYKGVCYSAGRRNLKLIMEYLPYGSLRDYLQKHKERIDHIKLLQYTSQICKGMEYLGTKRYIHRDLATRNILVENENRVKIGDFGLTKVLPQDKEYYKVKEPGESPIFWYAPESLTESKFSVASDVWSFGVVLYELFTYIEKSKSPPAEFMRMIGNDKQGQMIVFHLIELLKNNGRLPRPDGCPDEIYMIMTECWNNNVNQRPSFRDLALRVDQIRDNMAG

IC50, < 100 nM:
N#CCC1(n2cc(-c3ccnc(Nc4ccc(C(=O)N5CCCC5)cc4)n3)cn2)CC(C#N)C1 (single isomer, unassigned) [Example 288, 3-(cyanomethyl)-3-(4-(2-(4-(pyrrolidine-1-carbonyl)phenylamino)pyrimidin-4-yl)-1H-pyrazol-1-yl)cyclobutanecarbonitrile]
N#CCC(C1CC1)n1cc(-c2ccnc(Nc3ccc(C(=O)N4[C@@H]5CC[C@H]4C[C@@H](O)C5)cc3)n2)cn1 (mixture of isomers) [Example 252, 3-cyclopropyl-3-(4-(2-(4-((3-endo)-3-hydroxy-8-azabicyclo[3.2.1]octane-8-carbonyl)phenylamino)pyrimidin-4-yl)-1H-pyrazol-1-yl)propanenitrile]
N#CCC1(n2cc(-c3ccnc(Nc4cccc(-c5cnco5)c4)n3)cn2)CCN(C(=O)c2ccno2)CC1 (racemic) [Example 13, 2-(1-(isoxazole-5-carbonyl)-4-(4-(2-(3-(oxazol-5-yl)phenylamino)pyrimidin-4-yl)-1H-pyrazol-1-yl)piperidin-4-yl)acetonitrile]
Cc1cnc(Nc2ccccc2)nc1-c1cnn(C(CC#N)CC2CCN(S(=O)(=O)c3ccn(C)n3)CC2)c1 (racemic) [Example 65, 4-(1-(1-methyl-1H-pyrazol-3-ylsulfonyl)piperidin-4-yl)-3-(4-(5-methyl-2-(phenylamino)pyrimidin-4-yl)-1H-pyrazol-1-yl)butanenitrile]
COc1cnc(Nc2ccc(N3CCCCC3=O)cc2)nc1-c1cnn(C(CC#N)C2CCCC2)c1 (racemic) [Example 135, 3-cyclopentyl-3-(4-(5-methoxy-2-(4-(2-oxopiperidin-1-yl)phenylamino)pyrimidin-4-yl)-1H-pyrazol-1-yl)propanenitrile]
CC(=O)Nc1ccc(Nc2nccc(-c3cnn(C(CC#N)C4CCCC4)c3)n2)cc1 (racemic) [Example 39, N-(4-(4-(1-(2-cyano-1-cyclopentylethyl)-1H-pyrazol-4-yl)pyrimidin-2-ylamino)phenyl)acetamide]
N#CCC(C1CCCC1)n1cc(-c2ccnc(Nc3ccc(C(=O)N4CC[C@@H](O)C4)cc3)n2)cn1 (mixture of isomers) [Example 127, 3-cyclopentyl-3-(4-(2-(4-((R)-3-hydroxypyrrolidine-1-carbonyl)phenylamino)pyrimidin-4-yl)-1H-pyrazol-1-yl)propanenitrile]
CCS(=O)(=O)N1CC(CC#N)(n2cc(-c3ccnc(Nc4ccc(C(=O)N5CCC(OC)CC5)cc4)n3)cn2)C1 [Example 275, (1-(ethylsulfonyl)-3-4-(2-(4-((4-methoxypiperidin-1-yl)carbonyl)phenylamino)pyrimidin-4-yl)-1H-pyrazol-1-ylazetidin-3-yl)acetonitrile]
COc1cnc(Nc2cccc(C(=O)N3CCC3)c2)nc1-c1cnn(C(CC#N)C2CC2)c1 (racemic) [Example 334, 3-[4-(2-{[3-(azetidin-1-ylcarbonyl)phenyl]amino}-5-methoxypyrimidin-4-yl)-1H-pyrazol-1-yl]-3-cyclopropylpropanenitrile]
CCS(=O)(=O)N1CCC(CC(CC#N)n2cc(-c3nc(Nc4ccc(-n5cccn5)cc4)ncc3C)cn2)CC1 (racemic) [Example 49, 3-(4-(2-(4-(1H-pyrazol-1-yl)phenylamino)-5-methylpyrimidin-4-yl)-1H-pyrazol-1-yl)-4-(1-(ethylsulfonyl)piperidin-4-yl)butanenitrile]
N#CCC(C1CCCC1)n1cc(-c2ccnc(Nc3cccc(NC(=O)CN4CCC(O)CC4)c3)n2)cn1 (racemic) [Example 239, N-(3-(4-(1-(2-cyano-1-cyclopentylethyl)-1H-pyrazol-4-yl)pyrimidin-2-ylamino)phenyl)-2-(4-hydroxypiperidin-1-yl)acetamide]
Cc1noc(C)c1C(=O)Nc1ccc(Nc2nccc(-c3cnn(C(CC#N)C4CCCC4)c3)n2)cc1 (racemic) [Example 189, N-(4-(4-(1-(2-cyano-1-cyclopentylethyl)-1H-pyrazol-4-yl)pyrimidin-2-ylamino)phenyl)-3,5-dimethylisoxazole-4-carboxamide]
N#CCC(C1CCCC1)n1cc(-c2ccnc(Nc3ccc(N4CCOCC4)cc3)n2)cn1 (racemic) [Example 35, 3-cyclopentyl-3-(4-(2-(4-morpholinophenylamino)pyrimidin-4-yl)-1H-pyrazol-1-yl)propanenitrile]
COc1cnc(Nc2cccc(C(=O)N3CC[C@H](C#N)C3)c2)nc1-c1cnn(C(CC#N)C2CC2)c1 (mixture of isomers) [Example 327, (3S)-1-[3-({4-[1-(2-cyano-1-cyclopropylethyl)-1H-pyrazol-4-yl]-5-methoxypyrimidin-2-yl}amino)benzoyl]pyrrolidine-3-carbonitrile]
N#CCC1(n2cc(-c3ccnc(Nc4cccc(-c5cnco5)c4)n3)cn2)CN(S(=O)(=O)C2CC2)C1 [Example 18, 2-(1-(cyclopropylsulfonyl)-3-(4-(2-(3-(oxazol-5-yl)phenylamino)pyrimidin-4-yl)-1H-pyrazol-1-yl)azetidin-3-yl)acetonitrile]
Cc1cnc(Nc2ccc(NS(C)(=O)=O)cc2)nc1-c1cnn(C(CC#N)C2CCCC2)c1 (racemic) [Example 89, N-(4-(4-(1-(2-cyano-1-cyclopentylethyl)-1H-pyrazol-4-yl)-5-methylpyrimidin-2-ylamino)phenyl)methanesulfonamide]
Cc1cnc(Nc2ccc(-n3cccn3)cc2)nc1-c1cnn(C(CC#N)CC2CCN(C(=O)c3ccc(F)cc3F)CC2)c1 (racemic) [Example 64, 3-(4-(2-(4-(1H-pyrazol-1-yl)phenylamino)-5-methylpyrimidin-4-yl)-1H-pyrazol-1-yl)-4-(1-(2,4-difluorobenzoyl)piperidin-4-yl)butanenitrile]
N#CCC(C1CCCC1)n1cc(-c2ccnc(Nc3cccc(C(=O)N[C@H]4CCN(Cc5ccccc5)C4)c3)n2)cn1 (mixture of isomers) [Example 167, N—((S)-1-benzylpyrrolidin-3-yl)-3-(4-(1-(2-cyano-1-cyclopentylethyl)-1H-pyrazol-4-yl)pyrimidin-2-ylamino)benzamide]
CCS(=O)(=O)N1CC(CC#N)(n2cc(-c3ccnc(Nc4ccc(C(=O)N5CCC(O)CC5)cc4)n3)cn2)C1 [Example 256, 2-(1-(ethylsulfonyl)-3-(4-(2-(4-(4-hydroxypiperidine-1-carbonyl)phenylamino)pyrimidin-4-yl)-1H-pyrazol-1-yl)azetidin-3-yl)acetonitrile]
N#CCC(C1CCCC1)n1cc(-c2ccnc(Nc3cccc(C(=O)N4CC[C@@H](O)C4)c3)n2)cn1 (mixture of isomers) [Example 141, 3-cyclopentyl-3-(4-(2-(3-((R)-3-hydroxypyrrolidine-1-carbonyl)phenylamino)pyrimidin-4-yl)-1H-pyrazol-1-yl)propanenitrile]
N#CCC(C1CCN(c2ncc(F)cn2)CC1)n1cc(-c2ccnc(Nc3ccc(N4CCOCC4)cc3)n2)cn1 (racemic) [Example 23, 3-(1-(5-fluoropyrimidin-2-yl)piperidin-4-yl)-3-(4-(2-(4-morpholinophenylamino)pyrimidin-4-yl)-1H-pyrazol-1-yl)propanenitrile]
